How the values were obtained:
[1] = Slurry in pH 6.2 aqueous medium (conversion to unknown solid form); assay type: physicochemical; conditions: slurry as for the hydrobromide at pH 6.2, XRPD
Experimental: In attempts to characterize this form, as well as establish the rate of conversion to this form while slurrying the material, the following experiments were carried out. Initially, approximately 100 mg of the hydrobromide (1 equiv.) material was slurried in a pH 6.2 aqueous solution at ambient and XRPD analysis was carried out at time points 5 min., 1 hr, 2 hrs, 4 hrs and 8 hrs. Further analysis was then also carried out on the converted material.

[2] = test system: mutant EGFR kinase; conditions: enzymatic and cellular assays; cited from earlier work
[3] = test system: human non-small cell lung cancer cell; conditions: cited from earlier work
[4] = test system: human non-small cell lung cancer cell; conditions: cited from earlier work; remark: listed apart in the source
[5] = Salt disproportionation study (slurry in deionized water); assay type: physicochemical; conditions: for pH of the supernatant: deionized water slurry; for Disproportionation study, result of slurrying (XRPD): deionized water, ambient
Experimental: The pH of the supernatant was also monitored.
The hydrobromide salt was slurried in deionised water at ambient temperature (ca. 22° C.). […] The pH of the supernatant was also monitored.

[6] = Dynamic vapour sorption (DVS); assay type: physicochemical
Experimental: For dynamic vapour sorption (DVS), approximately 10-20 mg of sample was placed into a wire mesh vapour sorption balance pan and loaded into a DVS-1 dynamic vapour sorption balance by Surface Measurement Systems. The sample was subjected to a ramping profile from 20-90% relative humidity (RH) at 10% increments, maintaining the sample at each step until a stable weight had been achieved (99.5% step completion). After completion of the sorption cycle, the sample was dried using the same procedure, but all the way down to 0% RH and finally taken back to the starting point of 20% RH. The weight change during the sorption/desorption cycles were plotted, allowing for the hygroscopic nature of the sample to be determined.

[7] = Intrinsic dissolution of compressed discs; assay type: physicochemical
Experimental: A Sotax AT7 dissolution bath (USP 2, EP 2 apparatus) was used for the dissolution study in which paddles were used to stir the media. All tests were carried out at 37° C. and a paddle speed of 100 rpm.
(§1) Approximately 100-120 mg of each form was compressed into discs by placing the material into a die (diameter: 13 mm) and compressing the die under 5 tons of pressure in a hydraulic press for ca. 2 minutes. A Sotax AT7 (conformed to EP2 and USP2) dissolution instrument was used containing paddles to stir the media at 100 rpm. Dissolution media of pH 3 (1% SDS) and pH 4.5 (1% SDS) were prepared using citrate/phosphate buffer. All materials were tested in 750 ml of the buffer medium. Discs were added at time=0 seconds and allowed to sink to the bottom of the dissolution vessel before stirring began. ca. 1 ml aliquots of media were extracted from the dissolution vessels at times 1, 5, 10, 15, 30, 60, 120, 240 minutes and 24 hours, and tested for dissolved salt concentration by HPLC-UV. The dissolution tests were carried out in duplicate. For both dissolution media, the peak areas for the initial time points (up to 15 minutes), fell below the limit of quantification, however, when plotting Dissolution rate vs. time, the steepest part of the curve occurs during these early time points.
as §1, with “material” for “each form”, “API” for “dissolved salt”

[8] = 1 week stability of primary screen salts at 40° C./75% RH and 80° C. (open vials, XRPD); assay type: physicochemical; conditions: listed as Besylate (2 equiv.) Form I
Experimental: (open vials). TGA was carried out after the stability studies for samples containing sufficient material.

[9] = Hydration study (slurry in solvent:water mixtures, XRPD); assay type: physicochemical; conditions: ambient, ca. 3-4 days
Experimental: The resulting solids were then analyzed by XRPD to determine if any changes had occurred on slurrying.
Slurries of the hydrobromide salt were created in acetone:water mixtures (3%, 5% and 10%) and stirred at ambient for ca. 3 days. The resulting solids were then analysed by XRPD to determine if any changes had occurred on slurrying.
Slurries were created using ca. 200 mg of Form I salt material in 2 mL of the appropriate solvent system. These were stirred at ca. 55° C. for 6 hours.
Slurries were created using ca. 200 mg of Form I salt material in 2 mL of the appropriate solvent system.

[10] = Thermodynamic solubility in media of various pH (HPLC; XRPD of excess solids); conditions: for Thermodynamic Solubility: ca. 24 hours
Experimental: The remaining solids were also analysed by XRPD analysis to establish if any changes in the solid form occurred.
The remaining solids were also analysed by XRPD analysis to establish if any changes in the solid form occurred. For the buffer solutions, KCl/HCl was used for pH 1 and citrate/phosphate combinations for pH 3, 4.5 and 6.6.
The remaining solids were also analysed by XRPD analysis to establish if any changes in the solid form occurred. For the buffer solutions, KCl/HCl was used for pH 1 and citric acid/sodium citrate combinations for pH 3, 4.5 and 6.2.
The solids were then removed by filtration and tested by XRPD analysis. The mother liquors were analyzed by HPLC to determine API solubility.
For the buffer solutions, KCl/HCl was used for pH 1 and citrate/phosphate combinations for pH 3, 4.5 and 6.6 (10 mM). The pH of the solutions was also measured prior to HPLC analysis.

[11] = 1 week stability study (XRPD and HPLC); assay type: physicochemical; conditions: 1 week
Experimental: (§2) Resulting solids were analysed by XRPD and HPLC to establish if any changes had occurred.
as §2
The resulting solids were analysed by XRPD and HPLC to establish if any changes had occurred.

[12] = 40° C./75% RH, closed (crimped) vial

## C=CC(=O)Nc1cccc(Nc2nc(Nc3ccc(N4CCN(C(C)=O)CC4)cc3OC)ncc2C(F)(F)F)c1 [Compound 1, N-(3-(2-(4-(4-acetylpiperazin-1-yl)-2-methoxyphenylamino)-5-(trifluoromethyl)pyrimidin-4-ylamino)phenyl)acrylamide]
[1]
  solid form after slurry experiment: remained as the free base Form I
[2]
  inhibition of mutant EGFR kinase: selective covalent, irreversible inhibition
[3]
  inhibition of cell proliferation in vivo: inhibit
[4]
  inhibition of cell proliferation in vitro: inhibit

## C=CC(=O)Nc1cccc(Nc2nc(Nc3ccc(N4CCN(C(C)=O)CC4)cc3OC)ncc2C(F)(F)F)c1.O=S(=O)(O)c1ccccc1.O=S(=O)(O)c1ccccc1 [bis-besylate salt]
[5]; 1 hr
  pH of the supernatant: pH 2-3
  Disproportionation study, result of slurrying (XRPD): Yellow gum present.
[5]; 24 hrs
  pH of the supernatant: pH 1-2
  Disproportionation study, result of slurrying (XRPD): Different from starting material, appears to
[5]; 48 hrs
  pH of the supernatant: pH 1-2
  Disproportionation study, result of slurrying (XRPD): Different from starting material, appears to
[6]; after DVS cycles
  post DVS XRPD analysis (polymorphic form): change in polymorphic form
[6]; between 20 and 70% RH
  water uptake (DVS): ca. 2.2%
[7]; pH 3.0 (1% SDS), early time points, tablet 1
  intrinsic dissolution value: approximately 0.36 mg/cm^2/min
[7]; pH 3.0 (1% SDS), early time points, tablet 2
  intrinsic dissolution value: ~0.38 mg/cm^2/min
[7]; pH 3.0 (1% SDS), later time points, tablet 1
  intrinsic dissolution value: 0.08 mg/cm^2/min
[7]; pH 3.0 (1% SDS), later time points, tablet 2
  intrinsic dissolution value: 0.07 mg/cm^2/min
[7]; pH 4.5 (1% SDS), early time points, tablet 1
  intrinsic dissolution value: approximately 0.61 mg/cm^2/min
[7]; pH 4.5 (1% SDS), early time points, tablet 2
  intrinsic dissolution value: approximately 0.61 mg/cm^2/min
[7]; pH 4.5 (1% SDS), later time points, tablet 1
  intrinsic dissolution value: 0.09 mg/cm^2/min
[7]; pH 4.5 (1% SDS), later time points, tablet 2
  intrinsic dissolution value: 0.08 mg/cm^2/min
[8]
  Stability 40° C./75% RH (open conditions): Solid/gum present.
[9]; Acetone:water (3%)
  Hydration study, result of slurrying: Corresponds with the input bis-
[9]; Acetone:water (10%)
  Hydration study, result of slurrying: Different from the bis-besylate input
[10]; pH 1.0, KCl/HCl
  XRPD of excess solids: Diffractogram corresponds with the hydrated
[10]; pH 1.0, KCl/HCl buffer
  Thermodynamic Solubility: 4930 µg/mL
[10]; pH 3.0, Citrate/Phosphate
  XRPD of excess solids: Change in diffractogram - does not correspond
  Thermodynamic Solubility: 240 µg/mL
[10]; pH 3.0, KHP/HCl
  XRPD of excess solids: Change in diffractogram - does not correspond
  Thermodynamic Solubility: 260 µg/mL
[10]; pH 4.5, Citrate/Phosphate
  XRPD of excess solids: Change in diffractogram - does not correspond
  Thermodynamic Solubility: 430 µg/mL
[10]; pH 4.5, KHP/NaOH
  XRPD of excess solids: Change in diffractogram - does not correspond
  Thermodynamic Solubility: 100 µg/mL
[10]; pH 6.6, Citrate/Phosphate
  XRPD of excess solids: Change in diffractogram - does not correspond
  Thermodynamic Solubility: 660 µg/mL
[10]; pH 6.6, Phosphate/NaOH
  XRPD of excess solids: Change in diffractogram - does not correspond
  Thermodynamic Solubility: 170 µg/mL
[11]; [12]
  HPLC purity after storage: 97.35%
  XRPD after storage: No change in polymorphic form.
[11]; 40° C./75% RH, open vial
  HPLC purity after storage: 97.22%
  XRPD after storage: Change in polymorphic form,
[11]; 80° C., open vial
  HPLC purity after storage: 97.20%
  XRPD after storage: Corresponds predominantly with input
